Test: Reactivity of enteric coating materials with azithromycin: ester formation in 50/50 mixtures, LC/MS
Assay type: physicochemical
Conditions: 50/50 (w/w) mixture of azithromycin and material, 50° C. and 20% RH
Procedure: The reactivity of the materials useful for forming enteric coatings listed in Table 1 with azithromycin was determined as follows. […] (CAT), and triacetin, were prepared by adding equal weights of azithromycin and the material to a mortar and mixing with a spatula. […] Azithromycin esters were identified in each of the mixtures by LC/MS detection. […] The sample solutions were then filtered with a 0.45 μm nylon syringe filter. The sample solutions were then analyzed by HPLC using a Hypersil BDS C18 4.6 mm×250 mm (5 μm) HPLC column on a Hewlett Packard HP1100 liquid chromatograph. The mobile phase employed for sample elution was a gradient of isopropyl alcohol and 25 mM ammonium acetate buffer (pH approximately 7) as follows: initial conditions of 50/50 (v/v) isopropyl alcohol/ammonium acetate; the isopropyl alcohol percentage was then increased to 100% over 30 minutes and held at 100% for an additional 15 minutes. The flow rate was 0.80 mL/min. The method used a 75 μL injection volume and a 43° C. column temperature. A Finnigan LCQ Classic mass spectrometer was used for detection. […] Azithromycin ester values were calculated from the MS peak areas based on an external azithromycin standard. […] The results of this analysis are shown below as are the measured rates of ester formation (Re) at 50° C.

In the case of `CC(=O)OCC(COC(C)=O)OC(C)=O` [Triacetin, triacetin], the “Re at 50° C. (rate of ester formation)” value is reported as 6.5 × 10^−2 wt %/day and the “Concentration of Azithromycin Esters” value (storage time 10 days) is reported as 0.65 wt %.

From US20080199527A1, “Enteric Coated Azithromycin Multiparticulates” (Pfizer Inc., priority 2004, published 2008)
